Laboratory results published in US20260001871A1, “TRIAZOLE DERIVATIVES AS MODULATORS OF MAS-RELATED G-PROTEIN RECEPTOR D” (ESCIENT PHARMACEUTICALS, INC., priority 2022, published 2026).

Biological target: human MRGPRD (Homo sapiens, UniProt Q8TDS7)
Assay: MRGPRD antagonist activity, IP-One HTRF assay in CHO cells stably expressing human MRGPRD (versus 100 μM β-Alanine agonist)
Assay type: cell-based
Summary of the method: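 CHO cells stably expressing human MRGPRD, plated overnight at 37 °C, were treated with antagonist plus agonist in Tris-HCl/NaCl/LiCl buffer pH 8, incubated 1 h at 37 °C then 1 h at room temperature. IP-1 accumulation read by HTRF; IC50 and percent antagonism of maximum efficacy averaged, SEM reported.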

Chain of human MRGPRD (Q8TDS7 whole entry): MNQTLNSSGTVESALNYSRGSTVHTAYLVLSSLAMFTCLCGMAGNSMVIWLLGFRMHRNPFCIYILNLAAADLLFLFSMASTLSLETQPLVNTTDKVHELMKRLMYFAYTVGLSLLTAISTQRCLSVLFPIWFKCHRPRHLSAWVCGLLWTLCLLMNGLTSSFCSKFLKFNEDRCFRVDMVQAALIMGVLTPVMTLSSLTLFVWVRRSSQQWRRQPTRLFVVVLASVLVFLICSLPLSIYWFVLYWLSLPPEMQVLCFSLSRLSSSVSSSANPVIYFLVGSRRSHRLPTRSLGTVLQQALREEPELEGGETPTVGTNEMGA

Compound | IC50 [nM]
CN(C)C(=O)c1ccccc1-c1ccc(-n2nnc(C(=O)Nc3ccncc3)c2C2CC2)cc1 [Compound 7-2] | > 3000
Cc1nn(C)c(C)c1-c1ccc(-n2nnc(C(=O)Nc3ccncc3)c2C2CC2)nc1 [Compound 11-1, 5-cyclopropyl-N-(pyridin-4-yl)-1-(5-(1,3,5-trimethyl-1H-pyrazol-4-yl)pyridin-2-yl)-1H-1,2,3-triazole-4-carboxamide] | 100 to 500
Cc1cc(-n2nnc(C(=O)Nc3ccncc3)c2C2CC2)ccc1-c1ccc(C#N)cc1 [Compound 7-319] | 1000 to 3000
CC(=O)c1ccc(-c2cccc(-n3nnc(C(=O)Nc4ccncc4)c3C3CC3)c2)c(F)c1C [Compound 7-252] | 500 to 1000
O=C(Nc1ccncc1)c1nnn(-c2ccc(-c3n[nH]cc3F)cc2)c1C1CC1 [Compound 7-130] | 500 to 1000
O=C(Nc1ccncc1)c1nnn(-c2cccc(-c3ccc(F)cc3)c2)c1C1CC1 [Compound 7-311] | 1000 to 3000
Cc1ccc(-c2cccc(-n3nnc(C(=O)Nc4ccncc4)c3C3CC3)c2)cc1 [Compound 7-318] | 1000 to 3000
Cc1nn(C)c(C)c1-c1ccc(-n2nnc(C(=O)Nc3ccncc3)c2C2CC2)cc1OC(F)(F)F [Compound 7-335] | > 3000
O=C(Nc1c(F)cccc1F)c1nnn(-c2ccc(-c3ccccc3)cc2)c1C1CC1 [Compound 14-54] | 1000 to 3000
CCc1ccc(C2(NC(=O)c3nnn(-c4ccc(-c5c(C)nn(CC)c5C)cc4)c3C3CC3)CC2)cn1 [Compound 9-31] | 1000 to 3000
COc1cc(NC(=O)c2nnn(-c3ccc(-c4ccccc4)cc3)c2C2CC2)c2cn[nH]c2c1 [Compound 14-84] | > 3000
COc1ccc(-c2cccc(-n3nnc(C(=O)Nc4ccncc4)c3C3CC3)c2)c(C)c1 [Compound 7-287] | 1000 to 3000
CCn1cc(C2(NC(=O)c3nnn(-c4ccc(-c5ccc(C#N)c(F)c5)cc4)c3C3CC3)CC2)cn1 [Compound 18-14] | 100 to 500
O=C(Nc1cccc2nccn12)c1nnn(-c2ccc(-c3ccccc3)cc2)c1C1CC1 [Compound 14-65] | 1000 to 3000
Cn1cc(C2(NC(=O)c3nnn(C4CC=C(c5ccc(C#N)cc5)CC4)c3C3CC3)CC2)cn1 (centres unmarked) [Compound 12-6] | 1000 to 3000
CC(=O)c1cc(NC(=O)c2nnn(-c3ccc(-c4ccccc4)cc3)c2C2CC2)ccn1 [Compound 14-88] | 1000 to 3000
Cc1csc(CNC(=O)c2nnn(-c3ccc(-c4ccccc4)cc3)c2C2CC2)n1 [Compound 14-21] | 500 to 1000
CN(C)S(=O)(=O)n1ccc(-c2ccc(-n3nnc(C(=O)Nc4ccncc4)c3C3CC3)cc2)n1 [Compound 7-43] | 100 to 500
O=C(Nc1ccncc1)c1nnn(C2CCc3ccccc3C2)c1C1CC1 (centres unmarked) [Compound 4-9] | 1000 to 3000
Cc1cc(NC(=O)c2nnn(-c3ccc(-c4ccc(C#N)cc4)nc3)c2C2CC2)ccn1 [Compound 7-242] | 500 to 1000
O=C(Nc1ccncc1)c1nnn(-c2ccc(-c3ccc(C(F)(F)F)cc3)cc2)c1C1CC1 [Compound 7-66] | 100 to 500
CCn1cc(CNC(=O)c2nnn(-c3ccc(-c4c(C)nn(C)c4C)cc3)c2C(C)C)cn1 [Compound 17-11] | < 100
Cn1nc(C2CC2)cc1-c1ccc(-n2nnc(C(=O)Nc3ccncc3)c2C2CC2)cc1 [Compound 7-109] | 100 to 500
CCc1cccc(-c2cccc(-n3nnc(C(=O)Nc4ccncc4)c3C3CC3)c2)c1 [Compound 7-323] | 1000 to 3000
Cc1ccc(C2(NC(=O)c3nnn(-c4ccc(-c5c(C)nn(-c6ccccc6)c5C)cc4F)c3C3CC3)CC2)cn1 [Compound 7-225] | < 100
COc1ccccc1-c1ccc(-n2nnc(C(=O)Nc3ccncc3)c2C2CC2)c(C)c1 [Compound 7-244] | 500 to 1000
Cn1cc(NC(=O)c2nnn(-c3ccc(-c4ccccc4)cc3)c2C2CC2)cn1 [Compound 14-72] | > 3000
COc1ccc(C2(NC(=O)c3nnn(-c4ccc(-c5ccc(C#N)c(F)c5)cc4)c3C3CC3)CC2)cn1 [Compound 9-35] | 100 to 500
CC(=O)c1cccc(-c2cc(-n3nnc(C(=O)Nc4ccncc4)c3C3CC3)ccc2C)c1 [Compound 7-259] | 500 to 1000
